The results in this text go back to BindingDB's records for doi:10.1021/acs.jmedchem.6b01751 (Queen Mary University of London, 2017).

The first assay in a line: Inhibition of RIP1 in mouse L929 cells assessed as reduction in TNFalpha/QVD-Oph-induced necrosis after 24 hrs by Cell Titer-Glo luminescent cell viability assay.
Consider `CN1C(=O)[C@@H](NC(=O)c2n[nH]c(Cc3ccccc3)n2)COc2ccccc21`, for which the IC50 (as a rule, the concentration that inhibits the measured activity by half) is 1300 nM.

The nature of the next assay: Inhibition of RIP1 in human U937 cells assessed as reduction in TNFalpha/QVD-Oph-induced necrosis after 24 hrs by Cell Titer-Glo luminescent cell viability assay. In general terms: In ATP-based viability assays light output follows the ATP content of the culture.
Turning to `CN1C(=O)[C@@H](NC(=O)c2nnn(Cc3ccccc3)n2)COc2ccccc21`, the concentration for half-maximal inhibition (IC50) turned out to be 2.5 nM. Still for that read-out and setting: with `CN1C(=O)[C@@H](NC(=O)c2c[nH]c(Cc3ccccc3)n2)COc2ccccc21` the figure was 2000 nM. `CN1C(=O)[C@@H](NC(=O)c2cc(Cc3ccccc3)on2)COc2ccc(NS(C)(=O)=O)cc21`: the concentration for half-maximal inhibition (IC50) stood at 13 nM. Still for that read-out and setting: then `COC(=O)Nc1ccc2c(c1)N(C)C(=O)[C@@H](NC(=O)c1cc(Cc3ccccc3)on1)CO2`, with 10 nM; and `CC(=O)Nc1ccc2c(c1)N(C)C(=O)[C@@H](NC(=O)c1cc(Cc3ccccc3)on1)CO2`, with 7.9 nM. Consider `CN1C(=O)[C@@H](NC(=O)c2nnc(Cc3ccccc3)o2)COc2ccccc21`, for which the IC50 turned out to be 7.9 nM. Regarding `CN1C(=O)[C@@H](NC(=O)c2cn(Cc3ccccc3)nn2)COc2ccccc21`, the IC50 came to 25 nM. On the same count and under the same terms, with `CN1C(=O)[C@@H](NC(=O)c2cc(CC3CCCCC3)on2)COc2ccccc21` the figure was 501 nM; with `O=C(N[C@H]1CCOc2ccccc2NC1=O)c1cc(Cc2ccccc2)on1`, 631 nM. Consider `CN1C[C@H](NC(=O)c2cc(Cc3ccccc3)on2)C(=O)N(C)c2ccccc21`, for which the IC50 turned out to be 20 nM. As for `CN1C(=O)[C@@H](NC(=O)c2coc(Cc3ccccc3)n2)COc2ccccc21`, the IC50 was 2510 nM. As to `CC(C)Cc1cc(C(=O)N[C@H]2COc3ccccc3N(C)C2=O)no1`, the IC50 stood at 6310 nM. With `CN1C(=O)[C@@H](NC(=O)c2ncc(Cc3ccccc3)o2)COc2ccccc21`, the IC50 turned out to be 1 nM. The same measure, in the same setting: with `CN1C(=O)[C@@H](NC(=O)c2cc(Cc3ccccc3)on2)COc2ccc(-c3n[nH]c(=O)o3)cc21` the figure was 3.2 nM. On the same count and under the same terms, then `CN1C(=O)[C@@H](NC(=O)c2cn(Cc3ccccc3)cn2)COc2ccccc21`, with 6.3 nM.

Turning to `CN1C(=O)[C@@H](NC(=O)c2cc(Cc3ccccc3)n(C)n2)COc2ccccc21`, the IC50 was determined as 10 nM.

As for `CN1C(=O)[C@@H](NC(=O)c2ncn(Cc3ccccc3)n2)COc2ccccc21`, the IC50 was 1.6 nM. Same read-out and setting: with `CN1C(=O)[C@@H](NC(=O)c2cccc(Cc3ccccc3)c2)COc2ccccc21` the figure was 398 nM. Still for that read-out and setting: then `CCN1C(=O)[C@@H](NC(=O)c2cc(Cc3ccccc3)on2)COc2ccccc21`, with 7940 nM; and `CN1C(=O)[C@@H](NC(=O)c2cc(Cc3ccccc3)on2)COc2ccc(-c3cc[nH]n3)cc21`, with 6.3 nM. The same measure, in the same setting: with `CCCCCc1cc(C(=O)N[C@H]2COc3ccccc3N(C)C2=O)no1` the figure was 126 nM; with `CN1C(=O)[C@@H](NC(=O)c2cc(Cc3ccccc3)ccn2)COc2ccccc21`, 40 nM; with `CN1C(=O)[C@@H](NC(=O)c2cnn(Cc3ccccc3)c2)COc2ccccc21`, 631 nM. Take `CN1C(=O)[C@@H](NC(=O)c2noc(Cc3ccccc3)n2)COc2ccccc21`: the 50% inhibitory concentration (IC50) stood at 5 nM.
